Assay results taken from PMC8175350, “Drug repurposing screens identify chemical entities for the development of COVID-19 interventions” (Nature Communications, 2021).
Where a name gives a salt, the structure may show the parent alone. Read-outs that look alike come from different tables or passages of the source.

Experiments:
[1] = system: HeLa-ACE2 cells; test: cells; assay type: cell-based, human; details: Homo sapiens, HeLa-ACE2; read-out: HeLa-ACE2 TOA cell count EC50 GeoMean
[2] = system: SARS-CoV-2; test: microbe, parasite or virus in culture; assay type: cell-based; details: for Emax: Severe acute respiratory syndrome coronavirus 2, HeLa-ACE2, 24 h, curve plateau at infinite concentration, read-out: HeLa-ACE2 CoV-2 Sinf Average; for EC50: Severe acute respiratory syndrome coronavirus 2, HeLa-ACE2, detail block, read-out: HeLa-ACE2 CoV-2 EC50 GeoMean
[3] = system: HepG2; test: HepG2 72 h CellTiter-Glo cytotoxicity; details: 72 h
[4] = HepG2 72 h CellTiter-Glo cytotoxicity; details: human, HepG2 cells
[5] = system: HeLa-ACE2 cells; test: Uninfected HeLa-ACE2 24 h live/dead cytotoxicity counter screen; assay type: cell-based, human; details: curve plateau at infinite concentration
[6] = as above; assay type: cell-based, human; details: human, uninfected HeLa-ACE2 cells, detail block; read-out: HeLa-ACE2 uninfected cytotoxicity CC50 GeoMean
[7] = system: SARS-CoV-2; test: microbe, parasite or virus in culture; assay type: cell-based; details: for EC50: Severe acute respiratory syndrome coronavirus 2, HeLa-ACE2, detail block, read-out: HeLa-ACE2 TOA CoV-2 EC50 GeoMean; for Emax: Severe acute respiratory syndrome coronavirus 2, HeLa-ACE2, 10 h, curve plateau at infinite concentration, read-out: HeLa-ACE2 TOA CoV-2 Sinf Average
[8] = system: SARS-CoV-2; test: microbe, parasite or virus in culture; assay type: cell-based; details: for EC50: Severe acute respiratory syndrome coronavirus 2, Calu-3, detail block, read-out: Calu-3 CoV-2 EC50 GeoMean; for Emax: Severe acute respiratory syndrome coronavirus 2, Calu-3, 48 h, curve plateau at infinite concentration, read-out: Calu-3 CoV-2 Sinf Average
[9] = system: HEK293T; test: HEK293T 72 h CellTiter-Glo cytotoxicity; details: 72 h
[10] = HEK293T 72 h CellTiter-Glo cytotoxicity; details: human, HEK293T cells
[11] = system: Calu-3 cells; test: cells; details: Homo sapiens; for EC50: Calu-3, read-out: Calu-3 cell count EC50 GeoMean, detail block; for Emax: Calu-3, 48 h, read-out: Calu-3 cell count Sinf Average
[12] = system: HeLa-ACE2 cells; test: cells; details: Homo sapiens; for Emax: HeLa-ACE2, 24 h, read-out: HeLa-ACE2 cell count Sinf Average; for EC50: HeLa-ACE2, read-out: HeLa-ACE2 cell count EC50 GeoMean, detail block
[13] = system: Calu-3 cells; test: Uninfected Calu-3 48 h Cell-Titer Glo cytotoxicity counter screen; details: curve plateau at infinite concentration
[14] = as above; details: human, uninfected Calu-3 cells, Calu-3 uninfected cytotoxicity CC50 GeoMean, detail block
[15] = system: HEK293T; details: human, 72 h
[16] = system: HepG2; details: human, 72 h
[17] = system: SARS-CoV-2; assay type: cell-based; details: combination with remdesivir
[18] = in vitro; details: human, Calu-3 uninfected cytotoxicity CC50 GeoMean
[19] = system: Calu-3 cells
[20] = selectivity index, uninfected HeLa-ACE2 CC50 / SARS-CoV-2 EC50
[21] = TOA EC50 / HeLa-ACE2 SARS-CoV-2 EC50

Compound `CCN(CC)Cc1cc(Nc2ccnc3cc(Cl)ccc23)ccc1O` [Amodiaquine] has an EC50 [1] greater than 9.59 µM, an Emax [2] of 102% and an EC50 [2] of 1.19 µM. For the same compound, the “HeLa-ACE2 SI” value [2, 20] was greater than 33.48, the “HepG2 72-hour cytotoxicity Sinf Average” value [3] was -80% and the CC50 at 72 h [4] was 3.76 µM. The “HeLa-ACE2 uninfected cytotoxicity Sinf Average” value [5] was -89%, the CC50 at 24 h [6] was greater than 39.8 µM and the “TOA:HeLa-ACE2 EC50 Ratio” value [7] was 8.060. For the same compound, the EC50 [7] was greater than 9.59 µM, the EC50 [8] was greater than 9.85 µM and the “HEK293T 72-hour cytotoxicty Sinf Average” value [9] was -87%. It also gave a CC50 at 72 h [10] of 10 µM, an EC50 [11] greater than 9.85 µM and an Emax [12] of -26%. For the same compound, the EC50 [12] was greater than 0.865 µM.
For `CCCCCCOC(=O)NC(=N)c1ccc(NCc2nc3cc(C(=O)N(CCC(=O)OCC)c4ccccn4)ccc3n2C)cc1` [Dabigatran etexilate mesilate], the EC50 [1] was greater than 9.59 µM, the “HeLa-ACE2 SI” value [2] was greater than 6.50 and the Emax [2] was 100%. For the same compound, the EC50 [2] was 4.08 µM, the “HepG2 72-hour cytotoxicity Sinf Average” value [3] was -96% and the CC50 at 72 h [4] was 13.1 µM. The “HeLa-ACE2 uninfected cytotoxicity Sinf Average” value [5] was -97%, the CC50 at 24 h [6] was greater than 26.5 µM and the Emax [7] was 100%. The EC50 [7] was greater than 9.51 µM, the “TOA:HeLa-ACE2 EC50 Ratio” value [7, 21] was 2.329 and the EC50 [8] was greater than 9.98 µM. For the same compound, the “Calu-3 uninfected cytotoxicity Sinf Average” value [13] was -100%, the CC50 at 48 h [14] was greater than 29.9 µM and the “HEK293T 72-hour cytotoxicty Sinf Average” value [9] was -101%. The CC50 at 72 h [10] was 8.53 µM, the Emax [11] was 100% and the EC50 [11] was greater than 9.98 µM. The EC50 [12] was greater than 9.59 µM.
With `CN1CCN(c2ccc(C(=O)NCc3cnc(C#N)nc3NCC(C)(C)C)cc2)CC1` [Dutacatib] the EC50 [1] was greater than 9.59 µM, the Emax [2] was 101% and the EC50 [2] was 2.69 µM. For the same compound, the “HeLa-ACE2 SI” value [2, 20] was greater than 13.43, the “HEK293T 72-hour cytotoxicty Sinf Average” value [15] was -100% and the “HepG2 72-hour cytotoxicity Sinf Average” value [16] was -100%. For the same compound, the “HeLa-ACE2 synergy score with remdesivi” value [17] was 2.955 δ, the CC50 at 48 h [18] was greater than 29.9 µM and the “HeLa-ACE2 uninfected cytotoxicity Sinf Average” value [5] was -100%. For the same compound, the CC50 at 24 h [6] was greater than 36.1 µM, the Emax [7] was 100% and the EC50 [7] was greater than 9.36 µM. For the same compound, the “TOA:HeLa-ACE2 EC50 Ratio” value [7, 21] was 3.480, the Emax [8] was 96% and the EC50 [8] was greater than 9.98 µM. The “uninfected Calu-3 CC50” value [19] was > 29.867 ×÷ 1.001 (n=3) μM, the “Calu-3 uninfected cytotoxicity Sinf Average” value ([19]; human, 48 h) was -100% and the Emax [11] was 100%. For the same compound, the EC50 [11] was greater than 9.98 µM and the EC50 [12] was greater than 9.59 µM.
`CCc1ccc2c(c1)N(CC(C)CN(C)C)c1ccccc1S2` (stereo not drawn) [Ethylisobutrazine hydrochloride] showed an EC50 [1] greater than 9.59 µM, an Emax [2] of 100% and an EC50 [2] of 2 µM. For the same compound, the “HeLa-ACE2 SI” value [2, 20] was 10.48, the “HepG2 72-hour cytotoxicity Sinf Average” value [3] was -100% and the CC50 at 72 h [4] was 14.1 µM. The “HeLa-ACE2 uninfected cytotoxicity Sinf Average” value [5] was -100%, the CC50 at 24 h [6] was 20.9 µM and the “TOA:HeLa-ACE2 EC50 Ratio” value [7] was 1.889. The Emax [7] was 100%, the EC50 [7] was 3.77 µM and the Emax [8] was 100%. For the same compound, the EC50 [8] was greater than 9.98 µM, the “Calu-3 SI” value ([8]; selectivity index, uninfected Calu-3 CC50 / Calu-3 SARS-CoV-2 EC50) was 1.57 and the “Calu-3 uninfected cytotoxicity Sinf Average” value [13] was -100%. The CC50 at 48 h [14] was 15.7 µM, the “HEK293T 72-hour cytotoxicty Sinf Average” value [9] was -104% and the CC50 at 72 h [10] was 10.3 µM. It also gave an EC50 [11] greater than 9.98 µM, an Emax [12] of 100% and an EC50 [12] greater than 9.59 µM.
In the case of `N#Cc1c(N)nc(N)nc1N[C@H](c1nc2c(F)ccc(Cl)c2c(=O)n1-c1cccnc1)C1CC1` [GS-9901], the EC50 [1] is reported as greater than 9.59 µM, the “HeLa-ACE2 SI” value [2] is reported as greater than 8.17 and the Emax [2] is reported as 100%. For the same compound, the EC50 [2] was 3.81 µM, the “HEK293T 72-hour cytotoxicty Sinf Average” value [15] was -97% and the “HepG2 72-hour cytotoxicity Sinf Average” value [16] was -100%. For the same compound, the CC50 at 48 h [18] was greater than 29.9 µM, the “HeLa-ACE2 uninfected cytotoxicity Sinf Average” value [5] was -100% and the CC50 at 24 h [6] was greater than 31.1 µM. For the same compound, the EC50 [7] was greater than 9.59 µM, the “TOA:HeLa-ACE2 EC50 Ratio” value [7, 21] was 2.519 and the EC50 [8] was greater than 9.98 µM. For the same compound, the “uninfected Calu-3 CC50” value [19] was > 29.867 ×÷ 1.001 (n=3) μM, the Emax [11] was -100% and the EC50 [11] was greater than 9.98 µM. The Emax [12] was 100% and the EC50 [12] was greater than 9.59 µM.
